Source: patent US20260232653A1, “USE OF CONDENSED AZACYCLE COMPOUNDS FOR THE TREATMENT OF LYSOSOMAL STORAGE DISORDERS” (Minerva Neurosciences, Inc., priority 2023, published 2026)

Key:
[1] = molecular target: sigma 2/transmembrane protein 97 ("TMEM97") receptors (Homo sapiens, UniProt Q5BJF2); conditions: antagonist of the sigma receptor; known in the art; cited from earlier work
I1061T fibroblasts = assay: LysoTracker cytofluorimetric analysis of lysosomal size; assay type: cell-based; conditions: after 48 hours, particularly at 0.3 μM (FIG. 3)
Experimental: (§1) Healthy and I1061T fibroblasts (Coriell Institute Camden USA, cod. GM05659 (Healthy) and GM18453 (11061T)) were grown in air containing 5% CO2 in Dulbecco's Modified Eagle Medium (DMEM) medium, containing 10% v/v fetal calf serum, 2 mM L-glutamine, 0.1 mg/mL gentamicin, and 100 U/mL penicillin. Cells were passaged every 3 days.
Healthy and I1061T fibroblasts were cultured as in Example 1. To evaluate the effect of Compound No. 10 on lysosomal size, cells were treated with either 300 μM beta-cyclodextrin (CD), 2.5 μM Rim, 0.3 μM Compound No. 10 (CB), 1 μM Compound No. 10, 3 μM Compound No. 10, or vehicle control (ctr) for 72 hours. Following treatment, cytofluorimetric assays using Lysotracker™ (Life Technology #L7528) fluorescence as a tool was used and performed according to the manufacturer's instructions. LysoTracker™ provides fluorescence detection for live-cell staining of acidic environments and can be used for labeling and tracing acidic organelles such as lysosomes. Stained and unstained cells were analyzed by Cytofluorimeter CytoFLEX (Beckman Coulter). Data provided are the ratio of geometric (geo) mean of LysoTracker™ levels in stained divided by unstained samples, collected at 24 hours (FIG. 3, left), 48 hours (FIG. 3, middle), and 72 hours (FIG. 3, right).

NPC1 protein = assay: Effect on NPC1 protein levels, Western blot densitometry in I1061T fibroblasts; assay type: cell-based; conditions: 0.3, 1 and 3 μM, 24 h, 48 h, 72 h, versus vehicle (FIGS. 1B-1D)
Experimental: as §1
1.5 mg of each of the compounds were weighed, dissolved in the proper solvent to reach a 3 mM concentration, kept at 4° C., and used within 15 days. The dilutions for the treatment were carried out in order to administer a 1:1000 volume. Specifically, 2 μL in 2 mL medium was administered. Ctr was made with DMSO.
Cells were washed twice in phosphate buffer saline (PBS), harvested with 1% v/v trypsin, and pelleted by centrifugation. Pellets were re-suspended in PBS containing 0.1 M sucrose, 0.05 M KCl, 0.04 M KH2PO4, 30 mM EDTA, pH 7.4, and sonicated. The protein concentration was determined by the Lowry method.
Samples were solubilized in 0.25 mM Tris-HCl, (pH 6.8) containing 20% (w/v) SDS, protease inhibitor cocktail (Merck #PIC0002), then boiled for 2 minutes. […]

[2] = system: mouse model of Niemann-Pick Disease, Type C; conditions: WO 2014/022841; cited from earlier work

sigma 2/transmembrane protein 97 ("TMEM97") receptors, sequence (Q5BJF2 whole entry, species assumed): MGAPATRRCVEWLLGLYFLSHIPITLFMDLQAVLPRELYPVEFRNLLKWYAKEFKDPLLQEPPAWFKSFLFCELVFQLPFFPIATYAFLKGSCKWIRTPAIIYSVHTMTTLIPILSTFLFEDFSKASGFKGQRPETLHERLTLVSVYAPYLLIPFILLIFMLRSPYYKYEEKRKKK

## C[C@@H]1CN(CCCn2c3ccccc3c3ccccc32)C[C@H](C)N1 [Rimcazole, 9-[3-(3,5-cis-dimethylpiperazino)propyl]-carbazole]
[1]
  IC50: 386 nM

## CC1(C)CCN(C2CCCC2)Cc2cc(-c3ccc(C(F)(F)F)cc3)ccc21 [Compound No. 10, 2-cyclopentyl-5,5-dimethyl-8-(4-(trifluoromethyl)phenyl)-2,3,4,5-tetrahydro-1H-benzo[c]azepine]
I1061T fibroblasts
  fluorescence of the lysosomes (Lysotracker geo mean ratio), representing lysosomal size: increase
NPC1 protein
  effect on NPC1 protein expression: did not have a statistically significant effect

## OC[C@H]1O[C@@H]2O[C@H]3[C@H](O)[C@@H](O)[C@@H](O[C@H]4[C@H](O)[C@@H](O)[C@@H](O[C@H]5[C@H](O)[C@@H](O)[C@@H](O[C@H]6[C@H](O)[C@@H](O)[C@@H](O[C@H]7[C@H](O)[C@@H](O)[C@@H](O[C@H]8[C@H](O)[C@@H](O)[C@@H](O[C@H]1[C@H](O)[C@H]2O)O[C@@H]8CO)O[C@@H]7CO)O[C@@H]6CO)O[C@@H]5CO)O[C@@H]4CO)O[C@@H]3CO [beta-cyclodextrin]
[2]
  cholesterol accumulation: reduced
  neuronal cell loss: reduced
